Experiments:
Format in all cases: in vivo
[1] = system: waterhemp (common waterhemp, Amaranthus rudis); experiment: Test C preemergence, plant response rating; details: Preemergence
How it was run: (§1)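 After sowing in loam–sand blend or silt loam, pots were sprayed preemergence; separately grown 1- to 4-leaf plants were sprayed postemergence. Following 13 to 15 d under greenhouse conditions, injury was rated visually on a 0 to 100 scale.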

[2] = system: oilseed rape (Brassica napus); experiment: Test C preemergence, plant response rating; details: Preemergence
How it was run: as §1

[3] = system: morningglory (Ipomoea coccinea); experiment: Test C preemergence, plant response rating; details: Preemergence
How it was run: as §1

[4] = system: soybean (Glycine max); experiment: Test C preemergence, plant response rating; details: Preemergence
How it was run: as §1

[5] = system: foxtail, giant (giant foxtail, Setaria faberii); experiment: Test C preemergence, plant response rating; details: Preemergence
How it was run: as §1

[6] = system: crabgrass, large (large crabgrass, Digitaria sanguinalis); experiment: Test C preemergence, plant response rating; details: Preemergence
How it was run: as §1

[7] = system: ryegrass, Italian (Italian ryegrass, Lolium multiflorum); experiment: Test C preemergence, plant response rating; details: Preemergence
How it was run: as §1

[8] = system: nutsedge, yellow (yellow nutsedge, Cyperus esculentus); experiment: Test C preemergence, plant response rating; details: Preemergence
How it was run: as §1

[9] = system: corn (Zea mays); experiment: Test C preemergence, plant response rating; details: Preemergence
How it was run: as §1

[10] = system: wheat (winter wheat, Triticum aestivum); experiment: Test C preemergence, plant response rating; details: Preemergence
How it was run: as §1

[11] = system: velvetleaf (Abutilon theophrasti); experiment: Test C preemergence, plant response rating; details: Preemergence
How it was run: as §1

[12] = system: blackgrass (Alopecurus myosuroides); experiment: Test C preemergence, plant response rating; details: Preemergence
How it was run: as §1

[13] = system: lambsquarters (Chenopodium album); experiment: Test C preemergence, plant response rating; details: Preemergence
How it was run: as §1

[14] = system: waterhemp (common waterhemp, Amaranthus rudis); experiment: Test C postemergence, plant response rating
How it was run: as §1

[15] = system: oilseed rape (Brassica napus); experiment: Test C postemergence, plant response rating; details: for Oilseed Rape plant response rating: scale 0 to 100 (0 no effect, 100 complete control)
How it was run: as §1

[16] = system: soybean (Glycine max); experiment: Test C postemergence, plant response rating; details: for Soybean plant response rating: scale 0 to 100 (0 no effect, 100 complete control)
How it was run: as §1

[17] = system: kochia (Kochia scoparia); experiment: Test C postemergence, plant response rating; details: for Kochia plant response rating: scale 0 to 100 (0 no effect, 100 complete control)
How it was run: as §1

[18] = system: foxtail, giant (giant foxtail, Setaria faberii); experiment: Test C postemergence, plant response rating; details: for Foxtail, Giant plant response rating: scale 0 to 100 (0 no effect, 100 complete control)
How it was run: as §1

[19] = system: crabgrass, large (large crabgrass, Digitaria sanguinalis); experiment: Test C postemergence, plant response rating; details: for Crabgrass, Large plant response rating: scale 0 to 100 (0 no effect, 100 complete control)
How it was run: as §1

[20] = system: corn (Zea mays); experiment: Test C postemergence, plant response rating; details: for Corn plant response rating: scale 0 to 100 (0 no effect, 100 complete control)
How it was run: as §1

[21] = system: galium (catchweed bedstraw, Galium aparine); experiment: Test C postemergence, plant response rating; details: for Galium plant response rating: scale 0 to 100 (0 no effect, 100 complete control)
How it was run: as §1

With N#CC(CCCC(F)(F)F)c1ccccc1Oc1ncc(Cl)cn1 (stereo not shown) [Compound 144] the “Plant response rating, Waterhemp” value ([1]; 125 g ai/ha, scale of 0 to 100) was 100, the “Plant response rating, Waterhemp” value ([1]; 31 g ai/ha, scale 0 to 100) was 98 and the “Plant response rating, Waterhemp” value ([1]; 62 g ai/ha, scale 0 to 100) was 98. The “Plant response rating, Oilseed Rape” value ([2]; 125 g ai/ha, scale of 0 to 100) was 90, the “Plant response rating, Oilseed Rape” value ([2]; 31 g ai/ha, scale 0 to 100) was 0 and the “Plant response rating, Oilseed Rape” value ([2]; 62 g ai/ha, scale 0 to 100) was 5. The “Plant response rating, Morningglory” value ([3]; 125 g ai/ha, scale of 0 to 100) was 20, the “Plant response rating, Morningglory” value ([3]; 31 g ai/ha, scale 0 to 100) was 0 and the “Plant response rating, Morningglory” value ([3]; 62 g ai/ha, scale 0 to 100) was 10. The “Plant response rating, Soybean” value ([4]; 125 g ai/ha, scale of 0 to 100) was 60, the “Plant response rating, Soybean” value ([4]; 31 g ai/ha, scale 0 to 100) was 0 and the “Plant response rating, Soybean” value ([4]; 62 g ai/ha, scale 0 to 100) was 30. For the same molecule, the “Plant response rating, Foxtail, Giant” value ([5]; 125 g ai/ha, scale of 0 to 100) was 100, the “Plant response rating, Foxtail, Giant” value ([5]; 31 g ai/ha, scale 0 to 100) was 85 and the “Plant response rating, Foxtail, Giant” value ([5]; 62 g ai/ha, scale 0 to 100) was 100. The “Plant response rating, Crabgrass, Large” value ([6]; 125 g ai/ha, scale of 0 to 100) was 100, the “Plant response rating, Crabgrass, Large” value ([6]; 16 g ai/ha, scale 0 to 100) was 85 and the “Plant response rating, Crabgrass, Large” value ([6]; 31 g ai/ha, scale 0 to 100) was 98. For the same molecule, the “Plant response rating, Crabgrass, Large” value ([6]; 62 g ai/ha, scale 0 to 100) was 100, the “Plant response rating, Ryegrass, Italian” value ([7]; 125 g ai/ha, scale of 0 to 100) was 60 and the “Plant response rating, Ryegrass, Italian” value ([7]; 31 g ai/ha, scale 0 to 100) was 0. For the same molecule, the “Plant response rating, Ryegrass, Italian” value ([7]; 62 g ai/ha, scale 0 to 100) was 0, the “Plant response rating, Nutsedge, Yellow” value ([8]; 125 g ai/ha, scale of 0 to 100) was 70 and the “Plant response rating, Nutsedge, Yellow” value ([8]; 31 g ai/ha, scale 0 to 100) was 20. The “Plant response rating, Nutsedge, Yellow” value ([8]; 62 g ai/ha, scale 0 to 100) was 60, the “Plant response rating, Corn” value ([9]; 125 g ai/ha, scale of 0 to 100) was 30 and the “Plant response rating, Corn” value ([9]; 16 g ai/ha, scale 0 to 100) was 0. The “Plant response rating, Corn” value ([9]; 31 g ai/ha, scale 0 to 100) was 0, the “Plant response rating, Corn” value ([9]; 62 g ai/ha, scale 0 to 100) was 5 and the “Plant response rating, Wheat” value ([10]; 125 g ai/ha, scale of 0 to 100) was 5. The “Plant response rating, Wheat” value ([10]; 62 g ai/ha, scale 0 to 100) was 0, the “Plant response rating, Velvetleaf” value ([11]; 125 g ai/ha, scale of 0 to 100) was 45 and the “Plant response rating, Velvetleaf” value ([11]; 31 g ai/ha, scale 0 to 100) was 0. For the same molecule, the “Plant response rating, Velvetleaf” value ([11]; 62 g ai/ha, scale 0 to 100) was 15, the “Plant response rating, Blackgrass” value ([12]; 125 g ai/ha, scale of 0 to 100) was 30 and the “Plant response rating, Blackgrass” value ([12]; 16 g ai/ha, scale 0 to 100) was 5. For the same molecule, the “Plant response rating, Blackgrass” value ([12]; 31 g ai/ha, scale 0 to 100) was 10, the “Plant response rating, Blackgrass” value ([12]; 62 g ai/ha, scale 0 to 100) was 40 and the “Plant response rating, Lambsquarters” value ([13]; 125 g ai/ha, scale of 0 to 100) was 75. The “Plant response rating, Lambsquarters” value ([13]; 31 g ai/ha, scale 0 to 100) was 40, the “Plant response rating, Lambsquarters” value ([13]; 62 g ai/ha, scale 0 to 100) was 65 and the “Plant response rating, Waterhemp” value ([14]; 16 g ai/ha, scale of 0 to 100) was 35. For the same molecule, the “Plant response rating, Waterhemp” value ([14]; 31 g ai/ha, scale 0 to 100) was 60, the “Waterhemp plant response rating” value ([14]; 125 g ai/ha, scale 0 to 100 (0 no effect, 100 complete control)) was 75 and the “Plant response rating, Waterhemp” value ([14]; rate not given, scale 0 to 100) was 75. For the same molecule, the “Plant response rating, Oilseed Rape” value ([15]; 16 g ai/ha, scale of 0 to 100) was 35, the “Plant response rating, Oilseed Rape” value ([15]; 31 g ai/ha, scale 0 to 100) was 35 and the “Oilseed Rape plant response rating” value ([15]; 62 g ai/ha) was 70. The “Oilseed Rape plant response rating” value ([15]; 125 g ai/ha) was 85, the “Plant response rating, Soybean” value ([16]; 16 g ai/ha, scale of 0 to 100) was 30 and the “Plant response rating, Soybean” value ([16]; 31 g ai/ha, scale 0 to 100) was 30. The “Soybean plant response rating” value ([16]; 62 g ai/ha) was 50, the “Soybean plant response rating” value ([16]; 125 g ai/ha) was 65 and the “Plant response rating, Kochia” value ([17]; 16 g ai/ha, scale of 0 to 100) was 85. For the same molecule, the “Plant response rating, Kochia” value ([17]; 31 g ai/ha, scale 0 to 100) was 90, the “Kochia plant response rating” value ([17]; 62 g ai/ha) was 90 and the “Kochia plant response rating” value ([17]; 125 g ai/ha) was 90. For the same molecule, the “Plant response rating, Foxtail, Giant” value ([18]; 16 g ai/ha, scale of 0 to 100) was 5, the “Plant response rating, Foxtail, Giant” value ([18]; 31 g ai/ha, scale 0 to 100) was 10 and the “Foxtail, Giant plant response rating” value ([18]; 62 g ai/ha) was 30. For the same molecule, the “Foxtail, Giant plant response rating” value ([18]; 125 g ai/ha) was 40, the “Plant response rating, Crabgrass, Large” value ([19]; 16 g ai/ha, scale of 0 to 100) was 10 and the “Plant response rating, Crabgrass, Large” value ([19]; 31 g ai/ha, scale 0 to 100) was 25. The “Crabgrass, Large plant response rating” value ([19]; 62 g ai/ha) was 20, the “Crabgrass, Large plant response rating” value ([19]; 125 g ai/ha) was 25 and the “Plant response rating, Corn” value ([20]; 16 g ai/ha, scale of 0 to 100) was 15. For the same molecule, the “Plant response rating, Corn” value ([20]; 31 g ai/ha, scale 0 to 100) was 15, the “Corn plant response rating” value ([20]; 62 g ai/ha) was 20 and the “Corn plant response rating” value ([20]; 125 g ai/ha) was 25. For the same molecule, the “Plant response rating, Galium” value ([21]; 16 g ai/ha, scale of 0 to 100) was 50, the “Plant response rating, Galium” value ([21]; 31 g ai/ha, scale 0 to 100) was 70 and the “Galium plant response rating” value ([21]; 62 g ai/ha) was 85. The “Galium plant response rating” value ([21]; 125 g ai/ha) was 90.

From patent US11053204B2, “Pyrimidinyloxy benzene derivatives as herbicides” (FMC Corporation, priority 2015, dated 2021)
